Data reported in patent US6914045B2, “Glycopeptide antibiotics” (Wyeth Holdings Corporation, priority 2001, dated 2005).

Experiments:
Assay in all cases: in vitro antibacterial evaluation, MIC by broth dilution
Assay type in all cases: cell-based
Escherichia coli = conditions: 18 hours at 35° C.
Summary of the method: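 Broth dilution in Muller-Hinton II medium per NCCLS standard M7-A2, with an inoculum of 5×10^5 CFU/mL and antibiotic tested over 64-0.06 μg/mL. MIC was taken as the lowest concentration inhibiting visible growth.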

Streptococcus sp. = conditions: broth dilution, 18 hours at 35° C.
Summary of the method: (§1)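 Inoculum 5×10^5 CFU/mL; concentrations 64 to 0.06 μg/mL; MIC defined as lowest inhibitory level. Conducted by broth dilution under NCCLS guidelines.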

Enterococcus sp. = conditions: broth dilution, 18 hours at 35° C.
Summary of the method: as §1

Staphylococcus sp. = conditions: broth dilution, 18 hours at 35° C.; for MIC Staphylococcus aureus (ATCC 29213): strain ATCC 29213; for MIC Staphylococcus aureus (GC 1131): strain GC 1131; for MIC Staphylococcus aureus (GC 3051): strain GC 3051; for MIC Staphylococcus aureus (GC 3053): strain GC 3053; for MIC Staphylococcus aureus (GC 4541): strain GC 4541; for MIC Staphylococcus aureus (GC 4542): strain GC 4542; for MIC Staphylococcus aureus-SMITH (GC 4543): strain GC 4543; for MIC Staphylococcus aureus (GC 4544): strain GC 4544; for MIC Staphylococcus aureus (GC 4545): strain GC 4545; for MIC Staphylococcus haemolyticus (GC 4546): strain GC 4546; for MIC Coagulase Negative Staphylococcus (GC 4547): strain GC 4547; for MIC Coagulase Negative Staphylococcus (GC 4548): strain GC 4548; for MIC Coagulase Negative Staphylococcus (GC 4549): strain GC 4549; for MIC Coagulase Negative Staphylococcus (GC 4551): strain GC 4551
Summary of the method: as §1

CC(c1ccccc1)C1NC(=O)CNC(=O)C(CO)NC(=O)C(CC2CNC(=N)N2C2OC(CO)C(O)C(O)C2O)NC(=O)C(CC2CNC(=N)N2)NC(=O)C(Cc2ccc3oc(-c4ccc5c(c4)Cc4ccccc4-5)nc3c2)NC1=O (stereo not drawn) [Example 42, Cyclo[3-[2-(9H-fluoren-2-yl)-1,3-benzoxazol-5-yl]alanyl-3-(2-iminoimidazolidin-4-yl)alanyl-3-(3-hexopyranosyl-2-iminoimidazolidin-4-yl)alanylserylglycyl-β-methylphenylalanyl]]
32 µg/mL: MIC Escherichia coli (ATCC 25922) (Escherichia coli; strain ATCC 25922, broth dilution) | MIC Escherichia coli (GC 4559) (Escherichia coli; strain GC 4559, broth dilution)
4 µg/mL: MIC Streptococcus pyogenes (GC 4563) (Streptococcus sp.; strain GC 4563) | MIC Enterococcus faecium (GC 2243) (Enterococcus sp.; strain GC 2243) | MIC Enterococcus avium (GC 4558) (Enterococcus sp.; strain GC 4558) | MIC Staphylococcus aureus (ATCC 29213) (Staphylococcus sp.) | MIC Staphylococcus aureus (GC 3053) (Staphylococcus sp.) | MIC Coagulase Negative Staphylococcus (GC 4551) (Staphylococcus sp.)
16 µg/mL: MIC Streptococcus pneumoniae (GC 1894) (Streptococcus sp.; strain GC 1894) | MIC Streptococcus pneumoniae (GC 4565) (Streptococcus sp.; strain GC 4565) | MIC Enterococcus faecalis (GC 3059) (Enterococcus sp.; strain GC 3059) | MIC Enterococcus faecium (GC 4556) (Enterococcus sp.; strain GC 4556)
1 µg/mL: MIC Escherichia coli (GC 4560) (Escherichia coli; strain GC 4560, broth dilution) | MIC Coagulase Negative Staphylococcus (GC 4548) (Staphylococcus sp.) | MIC Coagulase Negative Staphylococcus (GC 4549) (Staphylococcus sp.) | MIC Coagulase Negative Staphylococcus (GC 6257) (Staphylococcus sp.; strain GC 6257)
2 µg/mL: MIC Enterococcus faecium (GC 4557) (Enterococcus sp.; strain GC 4557) | MIC Staphylococcus aureus (GC 1131) (Staphylococcus sp.) | MIC Staphylococcus aureus (GC 4541) (Staphylococcus sp.) | MIC Staphylococcus aureus (GC 4542) (Staphylococcus sp.) | MIC Staphylococcus aureus-SMITH (GC 4543) (Staphylococcus sp.) | MIC Staphylococcus aureus (GC 4544) (Staphylococcus sp.) | MIC Staphylococcus aureus (GC 4545) (Staphylococcus sp.) | MIC Staphylococcus haemolyticus (GC 4546) (Staphylococcus sp.) | MIC Coagulase Negative Staphylococcus (GC 4547) (Staphylococcus sp.)
8 µg/mL: MIC Streptococcus pneumoniae (ATCC 6301) (Streptococcus sp.; strain ATCC 6301) | MIC Streptococcus agalactiae (GC 4564) (Streptococcus sp.; strain GC 4564) | MIC Enterococcus faecalis (ATCC 29212) (Enterococcus sp.; strain ATCC 29212) | MIC Enterococcus faecalis (GC 2242) (Enterococcus sp.; strain GC 2242) | MIC Enterococcus faecalis (GC 2691) (Enterococcus sp.; strain GC 2691) | MIC Enterococcus faecalis (GC 4552) (Enterococcus sp.; strain GC 4552) | MIC Enterococcus faecalis (GC 4553) (Enterococcus sp.; strain GC 4553) | MIC Enterococcus faecalis (GC 4554) (Enterococcus sp.; strain GC 4554) | MIC Enterococcus faecalis (GC 6189) (Enterococcus sp.; strain GC 6189) | MIC Staphylococcus aureus (GC 3051) (Staphylococcus sp.)

CC(c1ccccc1)C1NC(=O)CNC(=O)C(CO)NC(=O)C(C(O)C2CNC(=N)N2C2OC(CO)C(O)C(O)C2O)NC(=O)C(C(O)C2CNC(=N)N2)NC(=O)C(Cc2ccc(OC3OC(CO)C(OC4OC5COC6(OC5C(O)C4O)C(C)CCCC6C)C(O)C3O)cc2)NC1=O (centres unmarked) [Example 206]
32 µg/mL: MIC Escherichia coli (ATCC 25922) (Escherichia coli) | MIC Escherichia coli (GC 4559) (Escherichia coli)
<0.12 µg/mL: MIC Streptococcus pneumoniae (ATCC 6301) (Streptococcus sp.) | MIC Streptococcus pneumoniae (GC 1894) (Streptococcus sp.) | MIC Streptococcus pneumoniae (GC 4565) (Streptococcus sp.) | MIC Streptococcus pneumoniae (ATCC 6301) (Streptococcus sp.; inoculum 5×10^5 CFU/mL, strain ATCC 6301) | MIC Streptococcus pneumoniae (GC 1894) (Streptococcus sp.; inoculum 5×10^5 CFU/mL, strain GC 1894) | MIC Streptococcus pneumoniae (GC 4565) (Streptococcus sp.; inoculum 5×10^5 CFU/mL, strain GC 4565)
1 µg/mL: MIC Escherichia coli (GC 4560) (Escherichia coli) | MIC Streptococcus pyogenes (GC 4563) (Streptococcus sp.) | MIC Streptococcus pyogenes (GC 4563) (Streptococcus sp.; inoculum 5×10^5 CFU/mL, strain GC 4563) | MIC Enterococcus faecalis (ATCC 29212) (Enterococcus sp.) | MIC Enterococcus faecalis (GC 3059) (Enterococcus sp.) | MIC Enterococcus faecalis (GC 6189) (Enterococcus sp.) | MIC Enterococcus faecium (GC 4556) (Enterococcus sp.) | MIC Enterococcus faecalis (ATCC 29212) (Enterococcus sp.; inoculum 5×10^5 CFU/mL, strain ATCC 29212) | MIC Enterococcus faecalis (GC 3059) (Enterococcus sp.; inoculum 5×10^5 CFU/mL, strain GC 3059) | MIC Enterococcus faecium (GC 4556) (Enterococcus sp.; inoculum 5×10^5 CFU/mL, strain GC 4556) | MIC Enterococcus faecalis (GC 6189) (Enterococcus sp.; inoculum 5×10^5 CFU/mL, strain GC 6189) | MIC Staphylococcus aureus (ATCC 29213) (Staphylococcus sp.) | MIC Staphylococcus aureus (GC 1131) (Staphylococcus sp.) | MIC Staphylococcus aureus (GC 3051) (Staphylococcus sp.) | MIC Staphylococcus aureus (GC 3053) (Staphylococcus sp.) | MIC Staphylococcus aureus (GC 4541) (Staphylococcus sp.) | MIC Staphylococcus aureus (GC 4542) (Staphylococcus sp.) | MIC Staphylococcus aureus-SMITH (GC 4543) (Staphylococcus sp.) | MIC Staphylococcus aureus (GC 4544) (Staphylococcus sp.) | MIC Staphylococcus aureus (GC 4545) (Staphylococcus sp.) | MIC Coagulase Negative Staphylococcus (GC 4547) (Staphylococcus sp.) | MIC Coagulase Negative Staphylococcus (GC 4551) (Staphylococcus sp.)
0.25 µg/mL: MIC Streptococcus agalactiae (GC 4564) (Streptococcus sp.) | MIC Streptococcus agalactiae (GC 4564) (Streptococcus sp.; inoculum 5×10^5 CFU/mL, strain GC 4564)
2 µg/mL: MIC Enterococcus avium (GC 4558) (Enterococcus sp.) | MIC Enterococcus faecalis (GC 2242) (Enterococcus sp.) | MIC Enterococcus faecalis (GC 2691) (Enterococcus sp.) | MIC Enterococcus faecalis (GC 4552) (Enterococcus sp.) | MIC Enterococcus faecalis (GC 4553) (Enterococcus sp.) | MIC Enterococcus faecalis (GC 4554) (Enterococcus sp.) | MIC Enterococcus faecium (GC 2243) (Enterococcus sp.) | MIC Enterococcus faecium (GC 4557) (Enterococcus sp.) | MIC Enterococcus faecalis (GC 2242) (Enterococcus sp.; inoculum 5×10^5 CFU/mL, strain GC 2242) | MIC Enterococcus faecium (GC 2243) (Enterococcus sp.; inoculum 5×10^5 CFU/mL, strain GC 2243) | MIC Enterococcus faecalis (GC 2691) (Enterococcus sp.; inoculum 5×10^5 CFU/mL, strain GC 2691) | MIC Enterococcus faecalis (GC 4552) (Enterococcus sp.; inoculum 5×10^5 CFU/mL, strain GC 4552) | MIC Enterococcus faecalis (GC 4553) (Enterococcus sp.; inoculum 5×10^5 CFU/mL, strain GC 4553) | MIC Enterococcus faecalis (GC 4554) (Enterococcus sp.; inoculum 5×10^5 CFU/mL, strain GC 4554) | MIC Enterococcus faecium (GC 4557) (Enterococcus sp.; inoculum 5×10^5 CFU/mL, strain GC 4557) | MIC Enterococcus avium (GC 4558) (Enterococcus sp.; inoculum 5×10^5 CFU/mL, strain GC 4558)
0.5 µg/mL: MIC Staphylococcus haemolyticus (GC 4546) (Staphylococcus sp.) | MIC Coagulase Negative Staphylococcus (GC 4548) (Staphylococcus sp.) | MIC Coagulase Negative Staphylococcus (GC 4549) (Staphylococcus sp.)
